This note sets out measurements from ChEMBL document CHEMBL4390683, “Design, synthesis, and evaluation of α-galactopyranosylceramide mimics promoting Th2 cytokines production” (2019).

Assay type in all cases: functional
The subject of test [1] is Mus musculus. Nature of the test: Induction of serum IFNgamma production in C57BL/6 mouse assessed as serum IFNgamma level at 100 ug/kg, ip and measured for 48 hrs by peak value method relative to KRN7000.
The test system of test [2] is Mus musculus. Nature of the test: Ratio of induction activity for IL-4 production in C57BL/6 mouse at 100 ug/kg, ip after 48 hrs by peak value method to induction activity for IFN-gamma production in C57BL/6 mouse at 100 ug/kg, ip after 48 hrs by peak value method.
Test [3] deals with Mus musculus. The test is described as follows: Induction of serum IFNgamma production in C57BL/6 mouse at 100 ug/kg, ip and measured for 48 hrs by AUC method relative to KRN7000.
Test [4] has as its system Mus musculus. The test is described as follows: Induction of serum IFNgamma production in C57BL/6 mouse assessed as serum IFNgamma level at 100 ug/kg, ip and measured for 48 hrs by AUC method.
Test [5] relates to Mus musculus. Nature of the test: Induction of serum IL-4 production in C57BL/6 mouse at 100 ug/kg, ip and measured for 48 hrs by AUC method relative to KRN7000.
In test [6] the test system is Mus musculus. Nature of the test: Ratio of induction activity for IL-4 production in C57BL/6 mouse at 100 ug/kg, ip after 48 hrs by AUC method to induction activity for IFN-gamma production in C57BL/6 mouse at 100 ug/kg, ip after 48 hrs by AUC method.
Test [7] deals with Mus musculus. Nature of the test: Induction of serum IL-4 production in C57BL/6 mouse assessed as serum IL-4 level at 100 ug/kg, ip and measured for 48 hrs by peak value method relative to KRN7000.
In test [8] the test system is Mus musculus. Nature of the test: Induction of serum IFNgamma production in C57BL/6 mouse assessed as serum IFNgamma level at 100 ug/kg, ip and measured for 48 hrs by peak value method.
Test [9] deals with Mus musculus. Nature of the test: Induction of serum IL-4 production in C57BL/6 mouse assessed as serum IL-4 level at 100 ug/kg, ip and measured for 48 hrs by peak value method. The arrangement: unit not given here.
Test [10] deals with Mus musculus. Nature of the test: Induction of serum IL-4 production in C57BL/6 mouse assessed as serum IL-4 level at 100 ug/kg, ip and measured for 48 hrs by AUC method.

Turning to `CCCCCCCCCCCCCCCCCCCCCCCC(=O)N[C@@H](CO[C@H]1O[C@H](CO)[C@H](O)[C@H](O)[C@H]1O)[C@H](O)[C@H](O)CCCCC`, the Activity was 50% in the test with Mus musculus [1]; 39% in the test with Mus musculus [3]; 251% in the test on Mus musculus [5]; 244% in the test with Mus musculus [7]; 336 pg/mL in the test with Mus musculus [8]. The Ratio amounted to 4.85 in the test with Mus musculus [2] and 6.45 with Mus musculus [6]. Besides, the AUC with Mus musculus [4] turned out to be 6780 pg·h/mL.
For `CCCCCCCCCCCCCCCCCCCCCCCC(=O)N[C@@H](CO[C@H]1O[C@H](CNC(=O)[C@@H](N)CCC(=O)O)[C@H](O)[C@H](O)[C@H]1O)[C@H](O)[C@H](O)CCCCC`, the Activity with Mus musculus [1] is given as 36%; in the test on Mus musculus [3], 20%; with Mus musculus [5] it was 153%; in the test on Mus musculus [9], 303.26; in the test on Mus musculus [10] it was 2043.36 pg·h/mL; in the test on Mus musculus [7], 108%. Further, in the test on Mus musculus [8], the Activity amounted to 241 pg/mL. For the same molecule, the results for the Ratio with Mus musculus [2] and with Mus musculus [6] were 2.99 and 7.59, respectively. For the same molecule, the AUC with Mus musculus [4] was 3520 pg·h/mL.
As for `CCCCCCCCCCCCCCCCCCCCCCCC(=O)N[C@@H](CO[C@H]1O[C@H](CNC(=O)CCc2ccc(O)cc2)[C@H](O)[C@H](O)[C@H]1O)[C@H](O)[C@H](O)CCCCC`, the Activity stood at 25% with Mus musculus [1]; 25% in the test on Mus musculus [3]; 234% in the test with Mus musculus [5]; 657.75 with Mus musculus [9]; 3120.95 pg·h/mL in the test on Mus musculus [10]; 235% with Mus musculus [7]. Besides, the Activity in the test with Mus musculus [8] was 169 pg/mL. Besides, the Ratio with Mus musculus [2] came to 9.28; in the test with Mus musculus [6], 9.3. Moreover, the AUC in the test on Mus musculus [4] is 4380 pg·h/mL.
On to `CCCCCCCCCCCCCCCCCCCCCCCCCC(=O)N[C@@H](CO[C@H]1O[C@H](CO)[C@H](O)[C@H](O)[C@H]1O)[C@H](O)[C@H](O)CCCCCCCCCCCCCC` [RGI-7000], for which the Ratio in the test with Mus musculus [2] and with Mus musculus [6] was 1 each time. Also, the AUC in the test on Mus musculus [4] is 17400 pg·h/mL. In addition, the Activity with Mus musculus [9] was found to be 280; in the test on Mus musculus [10], 1331 pg·h/mL; with Mus musculus [8], 666 pg/mL.
